According to patent US10925915B2, “Use of a Copaifera extract to combat alopecia and seborrhea” (PIERRE FABRE DERMO-COSMETIQUE, priority 2017, dated 2021):

Tested on: 5α-reductase
Experiment: 5α-reductase activity of fibroblasts derived from human follicle dermal papillae ([C14]-testosterone metabolism to dihydrotestosterone)
Assay type: cell-based
Method: The study is performed on human cells derived from donor follicle dermal papillae. This model is attractive since dermal papillae have the 5α2 isoform as in prostate tissue. The cells are seeded in 24-well plates and cultured for 24 hours in DMEM culture medium supplemented with L-glutamine (2 mM), penicillin (50 U/ml), streptomycin (50 μg/ml) and fatal calf serum (10%) under standard culture conditions (37° C. and 5% CO2). The culture medium is then replaced by a DMEM analytical medium supplemented with L-glutamine (2 mM), penicillin (50 U/ml), streptomycin (50 μg/ml) and fatal calf serum (1%). This analytical medium may contain or may not contain (control conditions) the products to be tested and a compound used as reference, finasteride (10 μM), for 24 h of pre-incubation. The cells were then treated with an analytical medium containing [C^14]-testosterone and containing or not containing (control conditions) the test or reference products, and the cells were incubated for 24 h under these conditions. After incubation, supernatants were collected for testosterone metabolism analysis. All experiments were carried out three times. The steroid molecules were extracted from the supernatants with a chloroform/methanol mixture. The organic phase was collected and the different molecular species (testosterone metabolites) were separated by thin-layer chromatography using a solvent system containing dichloromethane, ethylacetate and methanol. An autoradiography was performed on the chromatography and the transformed testosterone was estimated by densitometric analysis.
Thus, the metabolism of testosterone to dihydrotestosterone reflects the 5α-reductase activity and is evaluated by the dihydrotestosterone/testosterone ratio.

5α-reductase inhibition, result in words | SMILES | inhibition of 5α-reductase (40 μg/ml) [%] | testosterone metabolism/dihydrotestosterone production (5α-reductase activity), change versus control = 100 (10 μM, n = 3) [%]
– | CCCCCCCCCCCC(=O)OCC(O)CO (stereo not drawn) [glyceryl laurate] | 19 | –
strong inhibition | CC(C)(C)NC(=O)[C@H]1CC[C@H]2[C@@H]3CC[C@H]4NC(=O)C=C[C@]4(C)[C@H]3CC[C@]12C [Finasteride, finasteride] | – | −77
